Entries after “also recorded” stand apart in the source; their conditions may differ.
Assays:
microorganisms [1] = assay: Morphology, biofilm and growth disrupting peptides (Table 5); format: cell-based; set-up: key: A: Peptide aggregates; B: Less hyphal formation; Clumps; Diffuse clumps and small polyps; F: Diffuse growth; H: Thin; I: Growth inhibition; Microcolony formation; Rippled; Small polyps; Thick; W: Halo formation on top, microlonies on bottom
Source text: In certain embodiments peptides that induce alterations in phenotype or other biological activities can also be used as antimicrobial effector moieties.

microorganisms [2] = assay: Peptide activities: targeting/binding, antimicrobial, growth or phenotype altering (Tables 7, 8); format: cell-based; details: peptides having multiple activities
microorganisms [3] = assay: Targeting peptide binding to target microorganisms (Tables 3, 10, 12); details: microorganism(s) the targeting peptide binds; binding in aqueous buffers varied with peptide solubility, preferably 1x PBS

Substance | Organism, effect: M. luteus (microorganisms [1]) | Organism, effect: S. epidermidis (microorganisms [1]) | Activities (microorganisms [2]) | Target(s) (microorganisms [3]) | other results
PF-204: peptide having multiple activities (ALQKQDMNLPSVKNQLVFLKSTG; Peptide with targeting and/or antimicrobial activity) | M. luteus (C) | S. epidermidis (C) | G B | S. epidermidis; also recorded: P. mirabilis; also recorded: E. coli; also recorded: P. aeruginosa; also recorded: C. albicans; also recorded: C. jejuni | Organism, effect: C. jeikeium (microorganisms [1]): C. jeikeium (D); Organism, effect: P. aeruginosa (microorganisms [1]; P. aeruginosa): P. aeruginosa (H)
PF-208: peptide having multiple activities (DAYHCHLVRSPDAHDLSMRIGFV; Peptide with targeting and/or antimicrobial activity) | – | S. epidermidis (D) | G B | S. epidermidis and C. albicans and MRSA and S. pneumoniae and E. faecalis and C. jeikeium and C. jejuni | Organism, effect: C. jeikeium (microorganisms [1]): C. jeikeium (A)
PF-212: peptide having multiple activities (NDSKASN; Peptide with targeting and/or antimicrobial activity) | M. luteus (M) | – | G B | M. luteus; also recorded: P. aeruginosa | –
PF-215: peptide having multiple activities (ELKITNYNVNTVLYRYYKWGNDLCE; Peptide with targeting and/or antimicrobial activity) | M. luteus (T) | – | G B | S. epidermidis; also recorded: M. luteus; also recorded: P. aeruginosa; also recorded: A. baumannii | –
PF-224: peptide having multiple activities (DYFYITLSQKNTF; Peptide with targeting and/or antimicrobial activity) | M. luteus (T) | – | G B | S. epidermidis; also recorded: P. aeruginosa; also recorded: A. baumannii | –
PF-233: peptide having multiple activities (DANAMARTTIAIVYILALIALTISYSL; Peptide with targeting and/or antimicrobial activity) | – | S. epidermidis (C) | G B | S. epidermidis; also recorded: M. luteus; also recorded: P. aeruginosa; also recorded: A. baumannii | –
PF-234: peptide having multiple activities (RTPYILRS; Peptide with targeting and/or antimicrobial activity) | M. luteus (T) | – | G B | S. epidermidis; also recorded: M. luteus | –
PF-235: peptide having multiple activities (GIPFSKPHKRQVNYMKSDVLAYIEQNKMAHTA; Peptide with targeting and/or antimicrobial activity) | M. luteus (T) | – | G B | S. epidermidis; also recorded: M. luteus | –
PF-249: peptide having multiple activities (chain 1 INSRYKISF; chain 2 INSRYKISF; Peptide with targeting and/or antimicrobial activity) | M. luteus (R) | – | G B | S. epidermidis; also recorded: M. luteus | –
PF-255: peptide having multiple activities (chain 1 DHKINESQHNPFRSDSNKQNVDFF; chain 2 DHKINESQHNPFRSDSNKQNVDFF; Peptide with targeting and/or antimicrobial activity) | M. luteus (M) | – | G B | P. aeruginosa | –
PF-271: peptide having multiple activities (chain 1 AAQPQTTSP; chain 2 AAQPQTTSP; Peptide with targeting and/or antimicrobial activity) | M. luteus (T) | – | G B | S. epidermidis; also recorded: M. luteus; also recorded: P. aeruginosa; also recorded: A. baumannii | –
PF-273: peptide having multiple activities (chain 1 LVGALLIFVALIYMVLKGNADKN; chain 2 LVGALLIFVALIYMVLKGNADKN; Peptide with targeting and/or antimicrobial activity) | – | S. epidermidis (C) | G B | S. epidermidis; also recorded: M. luteus; also recorded: P. aeruginosa; also recorded: A. baumannii | –
PF-276: peptide having multiple activities (chain 1 LDLALSTNSLNLEGFSF; chain 2 LDLALSTNSLNLEGFSF; Peptide with targeting and/or antimicrobial activity) | M. luteus (M) | – | G B | S. epidermidis | –
PF-292: peptide having multiple activities (chain 1 SFVSTTVRLIFEESKRYKF; chain 2 SFVSTTVRLIFEESKRYKF; Peptide with targeting and/or antimicrobial activity) | – | S. epidermidis (C) | G B | S. epidermidis; also recorded: B. subtilis; also recorded: B. fragilis | Organism, effect: B. subtilis (microorganisms [1]): B. subtilis (C)
PF-294: peptide having multiple activities (chain 1 DFLVNFLWFKGELNWGKKRYK; chain 2 DFLVNFLWFKGELNWGKKRYK; Peptide with targeting and/or antimicrobial activity) | – | S. epidermidis (C) | G B | S. epidermidis; also recorded: C. difficile | –
PF-297: peptide having multiple activities (ISKGIDDIVYVINKILSIGNIFKIIKRK; Peptide with targeting and/or antimicrobial activity) | – | S. epidermidis (C) | G B | S. epidermidis; also recorded: B. subtilis; also recorded: B. fragilis | Organism, effect: B. subtilis (microorganisms [1]): B. subtilis (C)
PF-301: peptide having multiple activities (GIVLIGLKLIPLLANVLN; Peptide with targeting and/or antimicrobial activity) | – | S. epidermidis (C) | G B | C. difficile | Organism, effect: B. subtilis (microorganisms [1]): B. subtilis (C)
PF-306: peptide having multiple activities (GCILPHKKDNYNYIMSKFQDLVKITSKK; Peptide with targeting and/or antimicrobial activity) | – | – | G B | C. difficile | Organism, effect: B. subtilis (microorganisms [1]): B. subtilis (C)
PF-313: peptide having multiple activities (YITSHKNARAIIKKFERDEILEEVITHYLNRK; Peptide with targeting and/or antimicrobial activity) | – | S. epidermidis (C) | G B | S. epidermidis; also recorded: C. difficile | –
PF-344: peptide having multiple activities (DERLPEAKAIRNFNGSVMVLGR; Peptide with targeting and/or antimicrobial activity) | – | – | G B | B. subtilis; also recorded: C. jejuni | Organism, effect: E. coli (microorganisms [1]): E. coli (A)
PF-350: peptide having multiple activities (LAVILRAIVY; Peptide with targeting and/or antimicrobial activity) | – | S. epidermidis (C) | G B | S. epidermidis; also recorded: E. coli; also recorded: E. faecalis; also recorded: C. jeikeium; also recorded: C. jejuni | Organism, effect: E. coli (microorganisms [1]): E. coli (C); Organism, effect: MRSA (microorganisms [1]): MRSA (C)
PF-360: peptide having multiple activities (chain 1 MEQKVKVIFVPRSKPDNQLKTFVSAVLFKA; chain 2 MEQKVKVIFVPRSKPDNQLKTFVSAVLFKA; Peptide with targeting and/or antimicrobial activity) | – | S. epidermidis (S) | G B | S. epidermidis; also recorded: B. subtilis; also recorded: E. coli; also recorded: P. aeruginosa; also recorded: C. albicans; also recorded: E. faecalis; also recorded: C. jeikeium; also recorded: C. jejuni | Organism, effect: E. coli (microorganisms [1]): E. coli (C); Organism, effect: MRSA (microorganisms [1]): MRSA (H)
PF-362: peptide having multiple activities (chain 1 NIERILKEKVWMIRCVE; chain 2 NIERILKEKVWMIRCVE; Peptide with targeting and/or antimicrobial activity) | – | – | G B | S. epidermidis; also recorded: E. coli; also recorded: P. aeruginosa; also recorded: C. albicans; also recorded: E. faecalis; also recorded: C. jejuni | Organism, effect: E. coli (microorganisms [1]): E. coli (C); Organism, effect: MRSA (microorganisms [1]): MRSA (C)
PF-363: peptide having multiple activities (chain 1 SMLSVTVMCLMHASVAANQAMEKKV; chain 2 SMLSVTVMCLMHASVAANQAMEKKV; Peptide with targeting and/or antimicrobial activity) | – | S. epidermidis (S) | G B | B. subtilis; also recorded: E. coli; also recorded: P. aeruginosa; also recorded: C. albicans; also recorded: S. pneumoniae; also recorded: E. faecalis | Organism, effect: C. jejuni (microorganisms [1]; C. jejuni): C. jejuni (D); Organism, effect: E. coli (microorganisms [1]): E. coli (C); Organism, effect: E. faecalis (microorganisms [1]; E. faecalis): E. faecalis (D); Organism, effect: MRSA (microorganisms [1]): MRSA (H); Organism, effect: S. pneumoniae (microorganisms [1]; S. pneumoniae): S. pneumoniae (R)

— patent publication US20110039763A1, “TARGETED ANTIMICROBIAL MOIETIES” (C3 JIAN, INC., priority 2009, published 2011)
